What was measured:
[1] = tested on: T cell activation markers; test: T cell activation markers, 4T1 breast carcinoma in BALB/c mice; format: in vivo; settings: DMSO 1.0
From the text: Example 10. Du 102 Treatment Induces the Expression of T Cell Activation Markers of 4T1 Breast Cancer in BALB/c Mice

tumor cells = test: Tumor cytotoxicity experiments in vitro (all lines, general statements); format: cell-based; settings: HT29, LoVo, Huh7, H460, A549; FIG. 2-7
From the text: In different tumor cytotoxicity experiments in vitro (FIG. 2-FIG. 7), including colorectal cancer cell lines HT29 and LoVo cells, liver cancer cell Huh7, lung cancer cells H460 and A549, the arf1 inhibitor could all inhibit tumor cell growth (FIG. 2-FIG. 6), and there was a dose-dependent manner (FIG. 7).

CT-26 colon carcinoma = test: Drug-treated CT-26 cells in athymic nude mice; format: in vivo; parameters: unit not given here; settings: cells treated with 10 μM Du 102
Experimental: The immunogenicity of the reagents can be tested in mouse vaccination models (Obeid et al., 2007; Sagiv barfi et al., 2018). One flank of the mouse was injected with drug treated tumor cells, followed one week later by a second injection of syngeneic tumor cells. We tested the vaccine efficacy in CT-26 colon cancer, B16-F10 melanoma, and 4T1 breast cancer treated with DMSO or du102.
Cells will be treated with 10 μM Du 102 or DMSO treated CT26, 4T1 and B16-F10 tumor cells (5×10^5\1×10^5 and 5×10^5, respectively) were subcutaneously inoculated into 6-week-old female mice. After 7 days, equal amounts of corresponding tumor cells were seeded to the right side. Tumor cell lines were mixed with Matrigel (GIBCO, cat s̆ 354234) or resuspended in PBS and injected subcutaneously or intradermally.

[2] = tested on: chemokines and T cell activation markers; test: Chemokines and T cell activation markers by quantitative RT-PCR in MYC-ON mice; format: in vivo
Experimental: Chemokines and T cell activation markers were measured by quantitative RT-PCR in DMSO or du102 treated MYC-ON mice. CD8 T cell infiltration and immunostimulatory cytokine expression were increased as measured by quantitative RT-PCR. […] CCL5 and CXCL10 chemokines stimulate CD4+ and CD8+ lymphocytes tumor infiltration (Parkes et al., 2017), and CXCL10 and CXCL11 are T cell associated chemokines.

Work on “1H-indolo-5-carbaldehyde 5,6,7,8,9,10-hexahydrocycloocta[4,5]thieno[2,3-d]pyrimidin-4-ylhydrazone [Du 102]” yielded a Gzm8 expression [1] of 2.3, a GzmA expression [1] of 2.2 and an IL-1β expression [1] of 2.2. It also gave an INFγ expression [1] of 2.1, a PD-L1 expression [1] of 0.5 and a Perforin expression [1] of 2.5. The “tumor suppressive / inhibitory effect on tumor cells” value (tumor cells) was “Some Tumor Suppressive Effect”, the “CT-26 colon carcinoma tumor in Athymic mice” value (from here on “CT-26 colon carcinoma tumor”) (CT-26 colon carcinoma; Day 0) was 0 and the “CT-26 colon carcinoma tumor” value (CT-26 colon carcinoma; Day 5) was 0. The “CT-26 colon carcinoma tumor” value (CT-26 colon carcinoma; Day 10) was 15, the “CT-26 colon carcinoma tumor” value (CT-26 colon carcinoma; Day 15) was 117 and the “CT-26 colon carcinoma tumor” value (CT-26 colon carcinoma; Day 20) was 417. For the same substance, the “CT-26 colon carcinoma tumor” value (CT-26 colon carcinoma; Day 25) was 859, the Ccl5 expression ([2]; DMSO 1.0) was 2.4 and the Col22 expression ([2]; DMSO 1.0) was 2.5. It also gave a Cxcl11 expression ([2]; DMSO 1.0) of 2.8, a GzmA expression ([2]; DMSO 1.0) of 2.3 and a GzmB expression ([2]; DMSO 1.0) of 1.9. The IL-1β expression ([2]; DMSO 1.0) was 2.5, the PD-L1 expression ([2]; DMSO 1.0) was 0.4 and the Perforin expression ([2]; DMSO 1.0) was 2.2. The Cxcl10 expression ([2]; DMSO 1.1) was 3.1 and the INFγ expression ([2]; DMSO 1.1) was 3.2.

Source: US20240382487A1, “NOVEL COPI/ARF1-LIPOLYSIS PATHWAY INHIBITOR AND COMPOUND FOR ERADICATING CANCER STEM CELLS AND INDUCING DAMP-MEDIATED ANTI-TUMOR IMMUNE RESPONSE” (FUDAN UNIVERSITY, priority 2020, published 2024)
